{"source": "paper PMC7177849", "about": "“Gut Microbial Catabolites of Tryptophan Are Ligands and Agonists of the Aryl Hydrocarbon Receptor: A Detailed Characterization” (International Journal of Molecular Sciences, 2020)", "key": {"murine AhR": {"target": "T1, murine AhR (Mus musculus, UniProt P30561)", "T1 sequence (P30561 10-805)": "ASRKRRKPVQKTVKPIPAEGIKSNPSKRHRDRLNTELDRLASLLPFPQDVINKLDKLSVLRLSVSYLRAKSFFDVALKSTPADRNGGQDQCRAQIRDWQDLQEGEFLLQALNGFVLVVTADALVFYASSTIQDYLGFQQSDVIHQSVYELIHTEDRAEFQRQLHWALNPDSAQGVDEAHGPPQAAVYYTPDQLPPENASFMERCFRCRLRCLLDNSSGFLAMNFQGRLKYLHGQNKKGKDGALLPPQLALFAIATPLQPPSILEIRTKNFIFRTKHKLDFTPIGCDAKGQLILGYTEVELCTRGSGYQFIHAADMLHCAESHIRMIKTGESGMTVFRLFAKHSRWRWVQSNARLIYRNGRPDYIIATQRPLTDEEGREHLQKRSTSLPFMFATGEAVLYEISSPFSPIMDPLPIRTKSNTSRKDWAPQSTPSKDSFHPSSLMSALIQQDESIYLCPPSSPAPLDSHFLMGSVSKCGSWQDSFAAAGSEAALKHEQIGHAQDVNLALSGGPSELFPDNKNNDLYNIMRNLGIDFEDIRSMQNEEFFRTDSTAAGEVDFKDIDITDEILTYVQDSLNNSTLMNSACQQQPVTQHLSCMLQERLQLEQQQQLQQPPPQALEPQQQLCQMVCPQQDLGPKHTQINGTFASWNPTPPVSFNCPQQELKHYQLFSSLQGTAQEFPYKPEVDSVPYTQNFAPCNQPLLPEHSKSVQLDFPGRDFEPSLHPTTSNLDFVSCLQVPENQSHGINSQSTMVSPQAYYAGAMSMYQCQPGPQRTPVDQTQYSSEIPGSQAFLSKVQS", "experiment": "Competitive radio-ligand ([3H]-TCDD) AhR binding assay, cytosols from Hepa1c1c7 cells", "conditions": "Table 1 summary class", "method": "Figure 2 Competitive radio-ligand binding assay. Cytosols from Hepa1c1c7 cells were incubated with vehicle (negative control; 0.1% V/V), FICZ (positive control; 0.01 nM – 10 nM), TCDF (non-specific binding; 200 nM) and increasing doses of MICT in the presence of 2 nM [^3H]-TCDD. The specific binding of [^3H]-TCDD was determined as a difference between total and non-specific (200 nM; TCDF) reactions (value for vehicle DMSO; 0.1% V/V = corresponds to specific binding of [^3H]-TCDD = 100%). At least two independent experiments were performed and the incubations were done in triplicates in each experiment (technical replicates).\nLigand binding assay was performed using cytosolic protein extracts from murine Hepa1c1c7 cells as described. Briefly, aliquots of protein (2 mg/mL) were incubated at the room temperature for two (2) h with 2 nM [^3H]-TCDD in the presence of DMSO (vehicle control), FICZ (positive control), 200 nM TCDF (non-specific binding) or increasing concentration of MICT. After the incubation, the hydroxyapatite slurry was added to the samples and the suspension was incubated on ice and washed three times with HEGT buffer. The hydroxyapatite pellet was re-suspended in scintillation cocktail, and radioactivity was determined in a liquid scintillation counter. The specific binding of [^3H]-TCDD was determined by subtracting the radioactivity of non-specific reaction (TCDF) from total radioactivity. The values of IC50 were calculated where appropriate."}, "AhR [1]": {"tested_on": "AhR", "parameters": "method as in PMID 23973224", "conditions": "mouse H1L1.1c2 reporter cells; cited from earlier work"}, "AhR [2]": {"tested_on": "AhR", "parameters": "method as in PMID 26235394", "conditions": "100 µM IND, HepG2 cells, 4 h; cited from earlier work"}, "CYP1A1 mRNA": {"tested_on": "CYP1A1 mRNA", "parameters": "method as in PMID 24563545", "conditions": "cited from earlier work"}, "CYP1A1 promoter": {"tested_on": "CYP1A1 promoter", "experiment": "Chromatin immunoprecipitation (ChIP), binding of the AhR to CYP1A1 promoter in LS180 cells", "type": "cell-based, human", "conditions": "90 min", "method": "Figure 7 MICT elicit the binding of the AhR to CYP1A1 promoter, as determined by the chromatin immunoprecipitation assay (ChIP). LS180 cells were incubated with vehicle, TCDD, and tested compounds, as described in Materials and Methods, and were then subjected to ChIP analysis. Bar graphs show binding of the AhR to CYP1A1 promoter as quantified by RT-PCR. The entire protocol was carried out in three consecutive cell passages. The data are expressed as a fold enrichment to vehicle-treated cells and show the mean ± SD from duplicates (technical replicates). DNA fragments amplified by PCR were resolved on 2% agarose gel (representative record from “exp 2” is shown).\nLS180 cells (4 million) were seeded in a 60-mm dish in Dulbecco’s modified Eagle’s medium (D6546; Sigma Aldrich). The following day, the cells were incubated with DMSO (0.1% V/V), TCDD (10 nM), IND (1000 µM), IPY (200 µM), 3MI (200 µM), TA (200 µM), IAC (100 µM), and IAD (200 µM) for 90 min at 37 °C. ChIP assay was performed as we described in detail elsewhere."}}, "data": [{"smiles": "Cc1c[nH]c2ccccc12", "note": "[3MI, skatole]", "values": [{"measurement": "Affinity (IC50)", "setting": "murine AhR", "value": "low"}]}, {"smiles": "O=Cc1c[nH]c2ccccc12", "note": "[IA, indole-3-aldehyde]", "values": [{"measurement": "agonist activity", "setting": "AhR [1]", "value": "vigorous agonist activity"}, {"measurement": "Affinity (IC50)", "setting": "murine AhR", "value": "no"}]}, {"smiles": "O=C(O)/C=C/c1c[nH]c2ccccc12", "note": "[IAC, indole-3-acrylate]", "values": [{"measurement": "Affinity (IC50)", "setting": "murine AhR", "value": "very low"}]}, {"smiles": "NC(=O)Cc1c[nH]c2ccccc12", "note": "[IAD, indole-3-acetamide]", "values": [{"measurement": "Affinity (IC50)", "setting": "murine AhR", "value": "low"}]}, {"smiles": "OCCc1c[nH]c2ccccc12", "note": "[IET, indole-3-ethanol]", "values": [{"measurement": "Affinity (IC50)", "setting": "murine AhR", "value": "very low"}]}, {"smiles": "O=C(O)C(O)Cc1c[nH]c2ccccc12", "note": "(stereo not drawn) [ILA, indole-3-lactate]", "values": [{"measurement": "Affinity (IC50)", "setting": "murine AhR", "value": "no"}]}, {"smiles": "c1ccc2[nH]ccc2c1", "note": "[IND, indole]", "values": [{"measurement": "Affinity (IC50)", "setting": "murine AhR", "value": "very low"}, {"measurement": "activation of AhR", "setting": "AhR [2]", "value": "achieved"}, {"measurement": "induction of CYP1A1 mRNA", "setting": "AhR [2]", "value": "achieved"}, {"measurement": "induction of CYP1A1 mRNA", "setting": "CYP1A1 mRNA; various human cells, 500–1000 µM IND", "value": "moderate induction"}]}, {"smiles": "O=C(O)C(=O)Cc1c[nH]c2ccccc12", "note": "[IPY, indole-3-pyruvate]", "values": [{"measurement": "Affinity (IC50)", "setting": "murine AhR", "value": "low"}]}, {"smiles": "NCCc1c[nH]c2ccccc12", "note": "[TA, tryptamine]", "values": [{"measurement": "Affinity (IC50)", "setting": "murine AhR", "value": "no"}, {"measurement": "CYP1A1 mRNA induction", "setting": "CYP1A1 mRNA; 50 µM TA, Caco-2 and cells", "value": "induction"}]}, {"smiles": "Clc1cc2c(cc1Cl)Oc1cc(Cl)c(Cl)cc1O2", "note": "[TCDD, 2,3,7,8-tetrachlorodibenzo-p-dioxin, reference compound]", "values": [{"measurement": "binding of the AhR to the promoter of the CYP1A1 gene", "setting": "CYP1A1 promoter", "value": "enhanced"}]}]}
